# Source: the supplement of paper PMC10307832
# Columns and labels:
# Experiment in all cases: relative viability (nuclei count vs DMSO), 5 days (fraction); higher = more cells survive
# [1] = compound: C[C@@H](Oc1cc(-c2cnn(C3CCNCC3)c2)cnc1N)c1c(Cl)ccc(F)c1Cl [Crizotinib] + CC(=O)c1c(C)c2cnc(Nc3ccc(N4CCNCC4)cn3)nc2n(C2CCCC2)c1=O [Palbociclib] (partner 0.5 µM)
# In short: (§1)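 Dosing by pin tool came one day after lung cancer cell lines were seeded in 1536-well plates, using either one drug or a fixed anchor-drug dose plus five library-drug doses (not always all listed) in √10 steps. After 5 days, nuclei were counted on 4× images. Relative viability is treated-well nuclei count divided by vehicle-well nuclei count, and values are medians of duplicate plates.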
# [2] = compound: C[C@@H](Oc1cc(-c2cnn(C3CCNCC3)c2)cnc1N)c1c(Cl)ccc(F)c1Cl [Crizotinib] + Cc1cc(Nc2cc(N3CCN(C)CC3)nc(Sc3ccc(NC(=O)C4CC4)cc3)n2)n[nH]1 [Tozasertib] (partner 0.1 µM)
# In short: as §1
# [3] = compound: C[C@@H](Oc1cc(-c2cnn(C3CCNCC3)c2)cnc1N)c1c(Cl)ccc(F)c1Cl [Crizotinib] + O=C(c1cc(Cc2n[nH]c(=O)c3ccccc23)ccc1F)N1CCN(C(=O)C2CC2)CC1 [Olaparib] (partner 8 µM)
# In short: as §1
# [4] = compound: O=C(c1cc(Cc2n[nH]c(=O)c3ccccc23)ccc1F)N1CCN(C(=O)C2CC2)CC1 [Olaparib] + CC1(C)CCC(c2ccc(Cl)cc2)=C(CN2CCN(c3ccc(C(=O)NS(=O)(=O)c4ccc(N[C@H](CCN5CCOCC5)CSc5ccccc5)c(S(=O)(=O)C(F)(F)F)c4)cc3)CC2)C1 [Navitoclax] (partner 0.5 µM)
# In short: as §1
Cell Line,relative viability ([1]; first compound 0.01 µM),relative viability ([1]; first compound 0.03162 µM),relative viability ([1]; first compound 0.1 µM),relative viability ([1]; first compound 0.3162 µM),relative viability ([1]; first compound 1 µM),relative viability ([2]; first compound 0.01 µM),relative viability ([2]; first compound 0.03162 µM),relative viability ([2]; first compound 0.1 µM),relative viability ([2]; first compound 0.3162 µM),relative viability ([2]; first compound 1 µM),relative viability ([3]; first compound 0.01 µM),relative viability ([3]; first compound 0.03162 µM),relative viability ([3]; first compound 0.1 µM),relative viability ([3]; first compound 0.3162 µM),relative viability ([3]; first compound 1 µM),relative viability ([4]; first compound 0.08 µM),relative viability ([4]; first compound 0.253 µM),relative viability ([4]; first compound 2.53 µM),relative viability ([4]; first compound 8 µM)
201T,0.336,0.375,0.329,0.384,0.344,0.924,0.947,0.921,0.927,0.978,0.776,0.83,0.892,0.846,0.861,1.18,1.2,1.19,1.15
A549,–,–,–,–,–,–,–,–,–,–,0.38,0.259,0.362,–,0.456,1.33,0.991,0.81,0.597
A-427,0.486,0.53,0.496,–,0.558,0.17,0.199,0.215,–,0.212,0.745,0.777,0.783,–,0.623,0.946,0.93,0.526,0.554
ABC-1,0.811,0.838,0.517,–,0.711,–,0.196,0.16,0.177,0.186,–,1.11,0.823,–,0.63,–,–,–,–
BEN,0.528,0.504,0.464,0.47,0.489,0.452,0.55,0.53,0.414,0.446,1.04,1.06,0.924,0.974,1.15,0.0771,0.0609,0.0668,0.0792
CAL-12T,0.369,0.577,0.341,0.295,0.369,0.331,0.254,0.384,–,0.3,0.811,0.794,0.743,0.709,0.723,1.35,1.19,1.41,1.08
COR-L23,0.289,0.269,0.298,0.256,0.328,0.21,0.191,0.22,0.195,0.194,0.298,0.343,0.372,0.366,0.382,1.12,0.877,0.713,0.44
COR-L 105,0.4,0.427,0.397,0.388,0.409,0.331,0.361,0.367,0.326,0.344,0.661,0.689,0.757,0.584,0.7,0.781,0.822,0.574,0.48
Calu-6,–,–,–,–,–,–,–,–,–,–,0.606,0.571,0.522,0.624,0.549,0.859,0.741,0.764,0.506
ChaGo-K-1,0.917,0.92,0.971,0.908,0.98,0.24,0.222,0.222,0.209,0.246,0.422,0.413,0.418,0.297,0.444,1.44,0.989,0.953,0.848
EBC-1,–,–,–,–,–,–,–,–,–,–,0.563,0.664,0.643,0.182,0.154,0.46,0.403,0.44,0.318
EKVX,0.312,0.411,0.38,0.392,0.423,0.392,0.398,0.426,0.349,0.405,0.754,0.922,0.866,0.777,0.793,1.1,0.876,0.97,0.944
EMC-BAC-2,0.507,0.509,0.519,–,0.479,0.326,0.281,0.304,0.285,0.275,0.501,0.489,0.499,–,0.474,1.37,1.1,0.999,1.01
EPLC-272H,0.334,0.298,0.31,–,0.309,0.204,0.26,0.385,0.232,0.306,0.624,0.729,0.805,0.974,0.837,1.28,1.1,1.16,0.995
H3255,0.342,0.331,0.327,0.28,0.325,0.71,0.637,0.791,0.599,0.655,0.565,0.56,0.575,0.518,0.627,0.53,0.426,0.655,0.437
HARA,0.273,0.295,0.239,0.249,0.207,0.106,0.079,0.1,–,0.116,0.876,0.929,0.957,0.793,0.635,1.14,1.08,1.04,0.99
HCC-15,0.665,0.719,0.7,0.655,0.627,0.408,0.377,0.389,–,0.339,0.724,0.648,0.712,0.76,0.772,0.751,0.657,0.719,0.643
HCC-44,0.939,0.964,1.01,0.94,0.969,0.936,–,0.992,0.836,1.01,0.923,1.04,1.05,0.955,1,0.913,0.941,0.934,0.933
HCC-78,0.431,0.537,0.545,–,0.513,–,0.47,0.419,0.391,0.442,0.737,0.646,0.705,0.681,0.837,0.977,0.738,0.819,0.572
HCC-366,0.381,0.429,0.347,–,0.449,0.143,0.0981,0.106,–,0.136,0.357,0.357,0.329,–,0.356,1.08,0.985,0.827,0.492
HCC-827,0.455,0.492,0.498,0.463,0.413,0.427,0.438,0.414,0.413,0.415,0.618,0.58,0.637,0.517,0.655,0.979,0.933,0.978,0.855

Cell Line,relative viability ([1]; first compound 0.01 µM),relative viability ([1]; first compound 0.03162 µM),relative viability ([1]; first compound 0.1 µM),relative viability ([1]; first compound 0.3162 µM),relative viability ([1]; first compound 1 µM),relative viability ([2]; first compound 0.01 µM),relative viability ([2]; first compound 0.03162 µM),relative viability ([2]; first compound 0.1 µM),relative viability ([2]; first compound 0.3162 µM),relative viability ([2]; first compound 1 µM),relative viability ([3]; first compound 0.01 µM),relative viability ([3]; first compound 0.03162 µM),relative viability ([3]; first compound 0.1 µM),relative viability ([3]; first compound 0.3162 µM),relative viability ([3]; first compound 1 µM),relative viability ([4]; first compound 0.08 µM),relative viability ([4]; first compound 0.253 µM),relative viability ([4]; first compound 2.53 µM),relative viability ([4]; first compound 8 µM)
HOP-62,0.444,0.416,0.412,0.396,0.495,0.396,0.33,0.354,0.322,0.383,0.38,0.415,0.479,0.316,0.504,1.22,0.929,1.06,0.823
IA-LM,–,–,–,–,–,–,–,–,–,–,0.797,0.844,0.821,0.691,0.73,0.825,0.784,0.707,0.502
LC-2-ad,0.525,0.504,0.53,–,0.472,0.425,0.454,0.431,0.423,0.47,0.806,0.689,0.712,–,0.751,0.529,0.431,0.365,0.316
LCLC-97TM1,0.233,0.25,0.197,0.212,0.205,0.19,0.234,0.21,0.201,0.224,0.308,0.32,0.353,0.384,0.428,0.528,0.259,0.346,0.405
LCLC-103H,0.469,0.435,0.438,0.471,0.508,0.37,0.39,0.488,0.451,0.578,0.824,0.766,0.794,0.816,0.749,–,–,–,–
LK-2,0.65,0.691,0.596,0.609,0.534,0.173,0.177,0.197,–,0.19,0.678,0.638,0.87,0.461,0.753,0.887,0.696,0.876,0.951
LOU-NH91,0.583,0.534,0.516,0.533,0.5,0.674,0.69,0.751,0.606,0.677,0.917,0.876,0.925,0.848,0.912,0.757,0.642,0.725,0.618
LU99A,0.411,0.407,0.384,0.42,0.357,0.231,0.27,0.256,0.222,0.241,0.246,0.258,0.272,0.236,0.266,0.775,0.635,0.547,0.289
NCI-H358,0.127,0.14,0.184,0.127,0.126,0.0979,0.105,0.118,0.0922,0.0946,0.634,0.599,0.54,0.561,0.582,–,–,–,–
NCI-H522,0.998,1.18,0.827,1.04,1.02,0.509,0.492,0.503,0.596,0.471,0.658,0.585,0.736,0.747,0.604,–,–,–,–
NCI-H596,–,–,–,–,–,0.887,0.804,0.924,0.861,–,0.698,0.675,0.695,0.642,0.671,0.899,0.902,0.878,0.519
NCI-H650,0.346,0.32,0.352,–,0.375,0.772,0.726,0.721,0.616,0.809,0.481,0.465,0.396,–,0.346,–,–,–,–
NCI-H661,0.376,0.425,0.44,0.435,0.423,0.336,0.337,0.337,0.369,0.355,0.703,0.761,0.741,0.81,0.737,–,–,–,–
NCI-H1299,–,–,–,–,–,–,–,–,–,–,0.95,0.95,0.92,0.947,0.975,1.07,0.995,1.04,0.944
NCI-H1623,–,–,–,–,–,0.355,0.399,0.415,0.395,0.43,–,–,–,–,–,–,–,–,–
NCI-H1648,–,0.262,0.264,0.275,0.318,0.548,0.599,–,0.497,0.47,–,0.981,0.861,1.27,0.77,–,–,–,–
NCI-H1703,–,–,–,–,–,–,–,–,–,–,0.389,0.757,0.528,0.414,0.463,1.29,1.06,1.05,1.43
NCI-H1792,0.588,0.692,0.639,–,0.68,–,–,–,–,–,0.505,0.458,0.378,–,0.37,0.666,0.555,0.505,0.512
NCI-H2342,0.527,0.549,0.531,0.485,0.576,0.489,0.492,0.584,0.524,0.485,0.427,0.406,0.429,0.418,0.435,–,–,–,–
SW 900,0.544,0.453,0.497,0.546,0.514,0.657,0.541,0.512,0.52,0.613,0.792,0.814,0.831,1.06,0.863,–,–,–,–
